This passage reports IC50 results from US11286268B1, “EIF4E-inhibiting compounds and methods” (EFFECTOR THERAPEUTICS, INC., priority 2019, dated 2022).

Where two headings read alike, the source gives them in different places.

The target in the assay is recombinant eIF4E (Homo sapiens (Human), UniProt P06730). Kind of assay: Fluorescence polarization competition assay for eIF4E binding potency. Summed up: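 Competitive displacement format: compounds compete with a fluorescent m7GDP tracer (20 nM) for 75 nM recombinant eIF4E. Incubation is 30 min at room temperature, protected from light, with 1% DMSO. Polarization read gives IC50 over eight 3-fold concentrations.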

[1] abbreviates: fluorescence polarization competition, 75 nM recombinant eIF4E, 20 nM EDA-m7GDP-ATTO-550, IC50 class, read-out: elF4E FP.
Where [2] appears, read: inhibition of eIF4E/EDA-m7GDP-ATTO-550 binding by 50%, Table 4B calculated values, read-out: IC50.
Where [3] appears, read: inhibition of eIF4E/EDA-m7GDP-ATTO-550 binding, calculated IC50 values, Table 4B, read-out: IC50.

Chain of recombinant eIF4E (P06730 whole entry): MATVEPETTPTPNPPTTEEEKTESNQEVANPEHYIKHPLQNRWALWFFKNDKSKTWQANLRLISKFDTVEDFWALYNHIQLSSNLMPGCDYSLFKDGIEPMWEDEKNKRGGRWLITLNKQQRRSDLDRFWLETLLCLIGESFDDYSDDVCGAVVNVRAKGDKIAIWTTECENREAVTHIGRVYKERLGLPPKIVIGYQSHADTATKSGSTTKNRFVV

`Cc1nc2cnc(N(C)C3CCN(CC(C)(F)F)CC3)c(C#N)c2c(=O)n1CC#Cc1ccc(Cl)cc1-c1ccnc2c(C(=O)NS(=O)(=O)CC(F)F)csc12` [compound 1105]: the IC50 under setting [1] is less than 0.05 µM and the IC50 under setting [2] was 0.0217 µM. With `Cc1nc2cnc(N(C)C3CCN(C4(C(F)F)CC4)CC3)c(C#N)c2c(=O)n1CC#Cc1ccc(Cl)cc1-c1ccnc2c(C(=O)O)csc12` [compound 1522], the IC50 under setting [3] was 0.0177 µM. As to `Cc1nc2cc(C(F)(F)F)cc(C#N)c2c(=O)n1CCOc1ncc(Cl)cc1-c1ccnc2c(C(=O)O)csc12` [compound 259], the IC50 under setting [1] lay within 0.05 to 1 µM and the IC50 under setting [2] is more than 1 µM. Take `CCc1cc(-c2cc(Cl)ccc2OCCn2c(C)nc3cc(C(F)(F)F)c(-c4ccccn4)c(C#N)c3c2=O)c2scc(C(=O)O)c2n1` [compound 747]: the IC50 by setting is: under setting [1], less than 0.05 µM; under setting [2], 0.0189 µM. In the case of `Cc1nc2cnc(C3=CCC(F)(F)CC3)c(C#N)c2c(=O)n1CCOc1ccc(Cl)cc1-c1ccnc2c(C(=O)O)csc12` [compound 882], the IC50 is, setting by setting: under setting [1], less than 0.05 µM; under setting [2], 0.00662 µM. With `Cc1ccc(-c2c(C(F)(F)F)cc3nc(C)n(CCOc4ccc(Cl)cc4-c4cc(C)nc5c(C(=O)O)csc45)c(=O)c3c2C#N)c(C)n1` [compound 349], the IC50 was less than 0.05 µM under setting [1] and 0.00584 µM under setting [2]. For `Cc1cc(-c2cc(Cl)ccc2OCCn2c(C)nc3cc(F)c(C4=CCCC4)c(C#N)c3c2=O)c2scc(C(=O)O)c2n1` [compound 805], the IC50 was less than 0.05 µM under setting [1] and 0.0136 µM under setting [2]. As for `Cc1cc(-c2cc(Cl)ccc2C#CCn2c(C)nc3cc(C(F)(F)F)c(CN(C)C)c(C#N)c3c2=O)c2scc(C(=O)O)c2n1` [compound 562], the IC50 was less than 0.05 µM under setting [1] and 0.00878 µM under setting [2]. As to `Cc1nc2cnc(N(C)C3CCN(C)CC3)c(C#N)c2c(=O)n1CCOc1ccc(Cl)cc1-c1ccnc2c(C(=O)O)csc12` [compound 854], the IC50 was less than 0.05 µM under setting [1] and 0.0119 µM under setting [2].

`Cc1nc2ccc(OC(F)(F)F)c(C#N)c2c(=O)n1CCOc1ccc(Cl)cc1-c1ccnc2c(C(=O)O)csc12` [compound 406]: the IC50 by setting is: under setting [1], less than 0.05 µM; under setting [2], 0.0114 µM. For `Cc1cc(-c2cc(Cl)ccc2C#CCn2c(C)nc3cc(C(F)(F)F)c(CN4CCN(C)CC4)c(C#N)c3c2=O)c2scc(C(=O)O)c2n1` [compound 616], in that order: less than 0.05 µM and 0.00245 µM. With `Cc1cc(-c2cc(Cl)ccc2OCCn2c(C)nc3cnc(NCC(F)F)c(C#N)c3c2=O)c2scc(C(=O)O)c2n1` [compound 974], the IC50 under setting [1] was less than 0.05 µM and the IC50 under setting [2] was 0.0236 µM.

Turning to `Cc1nc2cc(CN(C)C)c(OC(F)(F)F)c(C#N)c2c(=O)n1CCOc1ccc(Cl)cc1-c1ccnc2c(C(=O)O)csc12` [compound 552], the IC50 under setting [1] lay within 0.05 to 1 µM and the IC50 under setting [2] was 0.0509 µM. Take `Cc1cc(-c2cc(Cl)ccc2OCCn2c(C)nc3cc(Cl)c(N4CC(C)(CO)C4)c(C#N)c3c2=O)c2scc(C(=O)O)c2n1` [compound 703]: the IC50 by setting is: under setting [1], less than 0.05 µM; under setting [2], 0.00318 µM.

As for `Cc1nc2cc(C(F)(F)F)c(N3CCN(CC(F)(F)F)CC3)c(C#N)c2c(=O)n1CCOc1ccc(Cl)cc1-c1ccnc2c(C(=O)O)csc12` [compound 640], the IC50 reads like this: under setting [1], less than 0.05 µM; under setting [2], 0.024 µM.

On to `O=C(O)c1cccc(-c2cc(Cl)ccc2OCCn2ccc3ncccc3c2=O)c1` [compound 10], for which the IC50 under setting [1] is more than 1 µM and the IC50 under setting [2] is 6.51 µM.

For the compound `Cc1cc(-c2cc(Cl)ccc2OCCn2c(C)nc3cc(C(F)(F)F)c(C4=CCN(C)CC4)c(C#N)c3c2=O)c2sc(C)c(C(=O)O)c2n1` [compound 1417], the IC50 under setting [3] was 0.0249 µM.

For `N#Cc1cc2c(=O)n(CCOc3ccc(Cl)cc3-c3ccnc(C(=O)O)c3)cnc2cn1` [compound 29], the IC50 runs as follows: under setting [1], 0.05 to 1 µM; under setting [2], 0.211 µM. For `CCN(c1ncc2nc(C)n(CC#Cc3ccc(Cl)cc3-c3ccnc4c(C(=O)O)csc34)c(=O)c2c1C#N)C1CCN(CC(F)F)CC1` [compound 1535], under setting [3], the IC50 is 0.0174 µM. In the case of `Cc1nc2cc(C(F)(F)F)c(N3CCN(C)CC3)c(C#N)c2c(=O)n1CCOc1ccc(Cl)cc1-c1ccnc2c(-c3nn[nH]n3)csc12` [compound 1228], the IC50 is less than 0.05 µM under setting [1] and 0.00111 µM under setting [3]. Regarding `N#Cc1c(C(F)F)ccc2nc(C(F)F)n(CCOc3ccc(Cl)cc3-c3ccnc4c(C(=O)O)csc34)c(=O)c12` [compound 188], the IC50 under setting [1] lay in the range of 0.05 to 1 µM and the IC50 under setting [2] is 0.0632 µM. As for `CCN(c1ncc2nc(C)n(CC#Cc3ccc(Cl)cc3-c3ccnc4c(C(=O)NS(=O)(=O)c5ccccn5)csc34)c(=O)c2c1C#N)C1CCN([C@H]2C[C@@H](OC(F)(F)F)C2)CC1` [compound 1781], the IC50 under setting [3] was 0.00832 µM. Turning to `Cc1nc2cnc(N(C)C3CCN(CC4(F)CCC4)CC3)c(C#N)c2c(=O)n1CC#Cc1ccc(Cl)cc1-c1ccnc2c(C(=O)O)csc12` [compound 1174], the IC50 was less than 0.05 µM under setting [1] and 0.00932 µM under setting [2]. `Cc1nc2cnc(N(C)C3CCN([C@H]4C[C@H](OC(F)F)C4)CC3)c(C#N)c2c(=O)n1CC#Cc1ccc(Cl)cc1-c1ccnc2c(C(=O)O)csc12` [compound 1135]: the IC50 was less than 0.05 µM under setting [1] and 0.0343 µM under setting [2].

As to `N#Cc1cccc2nc(C(F)F)n(CCOc3ccc(Cl)cc3-c3ccnc(C(=O)O)c3)c(=O)c12` [compound 166], the IC50 by setting is: under setting [1], less than 0.05 µM; under setting [2], 0.035 µM.

As to `Cc1nc2cnc(N3CC4(CCN4CC(C)(C)F)C3)c(C#N)c2c(=O)n1CCOc1ccc(Cl)cc1-c1ccnc2c(C(=O)O)csc12` [compound 1635], the IC50 under setting [3] is 0.0215 µM. As to `Cc1cc(-c2cc(Cl)ccc2OCCc2c(C)n(C)c3cc(C(F)(F)F)cc(C#N)c3c2=O)c2scc(C(=O)O)c2n1` [compound 409], the IC50 is, setting by setting: under setting [1], less than 0.05 µM; under setting [2], 0.0133 µM. On to `Cc1cc(-c2cc(Cl)ccc2OCCn2c(C)nc3cc(C(F)(F)F)c(CN4CCN(C)CC4)c(C#N)c3c2=O)c2sc(C)c(C(=O)O)c2n1` [compound 417], for which the IC50 runs as follows: under setting [1], less than 0.05 µM; under setting [2], 0.0197 µM. As to `Cc1nc2cnc(C3CCC(F)(F)CC3)c(C#N)c2c(=O)n1CCOc1ccc(Cl)cc1-c1ccnc2c(C(=O)O)csc12` [compound 260], the IC50 was less than 0.05 µM under setting [1] and 0.0204 µM under setting [2]. `Cc1c(C(F)(F)F)c(N2CCN(C)CC2)c(C#N)c2c(=O)n(CCOc3ccc(Cl)cc3-c3ccnc4c(C(=O)O)csc34)c(C)nc12` [compound 1934]: the IC50 under setting [3] was 0.0385 µM. For the compound `Cc1nc2cnc(N(C)C3[C@@H]4CC[C@H]3CN(CC(C)(F)F)C4)c(C#N)c2c(=O)n1CC#Cc1ccc(Cl)cc1-c1ccnc2c(C(=O)O)csc12` (stereo partly shown) [compound 1575], under setting [3], the IC50 was 0.0147 µM. Turning to `Cc1nc2cnc(N3CCN(C(C)(C)C(F)(F)F)CC3)c(C#N)c2c(=O)n1CCOc1ccc(Cl)cc1-c1ccnc2c(C(=O)O)csc12` [compound 1316], under setting [3], the IC50 is 0.0328 µM. For `Cc1nc2ccc(S(=O)(=O)c3ccccn3)c(C#N)c2c(=O)n1CCOc1ccc(Cl)cc1-c1ccnc2c(C(=O)O)csc12` [compound 297], the IC50 reads like this: under setting [1], less than 0.05 µM; under setting [2], 0.0363 µM. With `Cc1cc(-c2cc(Cl)ccc2OCCn2c(C)nc3cc(C(F)(F)F)c(C(C)(C)O)nc3c2=O)c2scc(C(=O)O)c2n1` [compound 938], the IC50 under setting [1] was less than 0.05 µM and the IC50 under setting [2] was 0.00244 µM.

As to `COc1cncc(-c2c(C(F)(F)F)cc3nc(C)n(CCOc4ccc(Cl)cc4-c4cc(C)nc5c(C(=O)O)csc45)c(=O)c3c2C#N)c1` [Compound 1060], the IC50 is, setting by setting: under setting [1], 0.05 to 1 µM; under setting [2], 0.0509 µM. For the compound `Cc1cc(-c2cc(Cl)ccc2OCCn2c(C)nc3cc(C(F)(F)F)c(Br)c(C#N)c3c2=O)c2scc(C(=O)O)c2n1` [compound 876], the IC50 is, setting by setting: under setting [1], 0.05 to 1 µM; under setting [2], 0.0733 µM. In the case of `Cc1cc(-c2cc(Cl)ccc2OCCn2c(C)nc3cc(C(F)(F)F)c(-c4cnccc4F)c(C#N)c3c2=O)c2scc(C(=O)O)c2n1` [compound 343], the IC50 under setting [1] is less than 0.05 µM and the IC50 under setting [2] is 0.0418 µM. Consider `Cc1nc2cnc(N3CCN(CCCC(F)(F)F)CC3)c(C#N)c2c(=O)n1CCOc1ccc(Cl)cc1-c1ccnc2c(C(=O)O)csc12` [compound 844], for which the IC50 is, setting by setting: under setting [1], less than 0.05 µM; under setting [2], 0.0233 µM. For `Cc1cc(-c2cc(Cl)ccc2OCCn2c(C)nc3cc(C(F)(F)F)cc(O)c3c2=O)c2scc(C(=O)O)c2n1` [351a], the IC50 under setting [2] is 0.885 µM. On to `Cc1nc2cnc(N3CC4(CN(CC(F)F)C4)C3)c(C#N)c2c(=O)n1CC#Cc1ccc(Cl)cc1-c1ccnc2c(C(=O)O)csc12` [compound 893], for which the IC50 reads like this: under setting [1], less than 0.05 µM; under setting [2], 0.0201 µM. In the case of `Cc1nc2cnc(N(C)C3CCN(CC(F)(F)C(F)F)CC3)c(C#N)c2c(=O)n1CC#Cc1ccc(Cl)cc1-c1ccnc2c(C(=O)NS(=O)(=O)c3cccnc3)csc12` [compound 1707], the IC50 under setting [3] was 0.0157 µM. On to `Cc1nc2c(C3CCN(CC(F)(F)F)CC3)ncc(C#N)c2c(=O)n1CCOc1ccc(Cl)cc1-c1ccnc2c(C(=O)O)csc12` [compound 1115], for which the IC50 under setting [1] is less than 0.05 µM and the IC50 under setting [2] is 0.00677 µM. With `Cc1nc2cnc(N3CCC(N(CC(F)F)C4COC4)CC3)c(C#N)c2c(=O)n1CC#Cc1ccc(Cl)cc1-c1ccnc2c(C(=O)NS(=O)(=O)CC(F)F)csc12` [compound 1591], the IC50 under setting [3] is 0.0362 µM. For the compound `COc1cc(F)c(C(=O)O)cc1-c1cc(Cl)ccc1OCCn1cnc2cnc(C#N)cc2c1=O` [compound 97], the IC50 runs as follows: under setting [1], more than 1 µM; under setting [2], more than 3 µM. `Cc1nc2ccc(S(=O)(=O)N(C)Cc3ccccc3)c(C#N)c2c(=O)n1CCOc1ccc(Cl)cc1-c1ccnc2c(C(=O)O)csc12` [compound 283]: the IC50 was less than 0.05 µM under setting [1] and 0.0406 µM under setting [2].
